According to patent publication US5521061A, “Enhancement of probe signal in nucleic acid-mediated in-situ hybridization studies” (Aprogenex, Inc., priority 1992, dated 1996):

How the values were obtained:
Hepg2 cells = test: Slide in situ hybridization, effect of DMSO (Example 1), Hepg2 cells, Y probe; type: cell-based, human; conditions: assay solution HC + 10% DMSO
From the text: Hepg2 cells were a human cell line (American Type Culture Collection number, ATCC-HB8065).
In this Example, the slide in situ cell preparation and hybridization protocol was followed.

[1] = test system: WBC cells (white blood cells); test: Slide in situ hybridization, effect of DMSO (Example 1), WBC cells, Y probe; type: cell-based, human; conditions: assay solution HC + 10% DMSO
From the text: (§1) The Y probe (also referred to as the HYR probe) was a collection of oligonucleotides specific for human Y chromosome α-satellite DNA repeated sequences; where the probe was to be detected under a fluorescent microscope, it was labeled at its 5' end, via an Aminolink linker molecule (aminohexyl, from Applied Biosystems, Inc.), to a Texas Red Moiety.
WBC cells (white blood cells) were obtained from a healthy human.
(§2) Slide in situ Cell Preparation and Hybridization Protocol
(§3) 1) Cells were suspended in a fixative (3 vol ethanol plus 1 vol methanol) and transferred to glass slides by centrifugation using a Cytospin apparatus.
(§4) 2) The assay solution (consisting of the hybridization cocktail HC alone or mixed with a compound or compounds being tested as an enhancer) with the DNA probe (25 ul) was placed over the cells and covered with a coverslip.
(§5) 3) The slide was heated at 90° C. for 5 minutes for DNA denaturation, then incubated at 46° C. for 30 minutes for hybridization.
(§6) 4) Cells were washed once with the wash solution #1, which was equilibrated at 42° C. Then cells were washed ten times with wash solution #2, which was equilibrated at 42° C.
(§7) 5) Mounting solution (50% glycerol (v/v) in 1×PBS plus the nuclear stain Hoechst, (#33258; 1 ug/ml) was placed on the cells and covered with a coverslip. […]

Amniotic cells = test: Slide in situ hybridization, effect of DMSO (Example 1), amniotic cells, Y probe; type: cell-based, human; conditions: assay solution HC + 10% DMSO
From the text: as §1
Amniotic cells were obtained by standard amniocentesis procedure.
as §2, §3, §4, §5, §6, §7

Hepg 2 cells = test: Slide in situ hybridization, DMSO plus one additional compound (Example 2), HYR probe; type: cell-based, human
Experimental: as §2, §3, §4, §5, §6
5) Mounting solution (50% glycerol (v/v) in 1×PBS plus the nuclear stain Hoechst, (#33258; 1 ug/ml) was placed on the cells and covered with a coverslip.
6) The hybridization signal was observed under an Olympus BH10 microscope with fluorescent capabilities using a rhodamine derivative filters (excitation wavelength of 567 nm, emission wavelength of 584 nm).
The inclusion of DMSO in an in situ assay solution increased the permeation of the nucleic acid probes into the cells and gave hybridization signal in over 95% of the cells. In this Example, we show the effect of adding, in addition to DMSO, 10 percent (v/v) of an additional compound to the assay solution. The additional compounds added were: squalane (an aliphatic alkane), dodecyl alcohol (an alcohol), beta-cyclodextrin (a sugar), isopropyl palmitate (a fatty acid ester), 1,2, propanediol (an alcohol), pyrrolidinone (a lactam) and hexamethyldisiloxane (an organic silane).
In this Example, the hybridization cocktail consisted of nine volumes of HC-DMSO plus one volume of an additional compound. In the control sample, one volume of water was added instead of one volume of additional compound. As a result, in all samples, the concentration of DMSO in the cocktail was 9 percent (v/v).
The Slide In Situ Cell Preparation and Hybridization protocol was followed. The cells used were Hepg 2 cells. The probe used was an HYR probe specific for human Y chromosome α-satellite DNA repeated sequences; at its 5' end, via an Aminolink linker molecule, the probe was linked to a Texas Red moiety. A signal intensity of 4 was assigned to the slide in which the assay solution was HC plus 10% DMSO (control slide) and all other slides were rated 1, 2, 3 or 4 in comparison to the control slide, depending on whether the intensity was 1, 2, 3, or 4 times that of the control slide, respectively.
The results are an average of four independent experiments.

Hela cells = test: Liquid in situ hybridization with flow cytometry, DMSO plus additional compound (Example 4), 28S RNA and NR probes; type: cell-based
From the text: A Coulter Profile II flow cytometer was used for flow cytometry. With FITC as the probe dye, the filter for LFL3 was a 635 nm long pass filter and the filter for LFL1 was a 540 bp filter; the excitation wavelength was 488 nm. PMT1 and PMT3 settings were adjusted as required. A typical useful setting when fluorescein is the dye moiety is to have a PMT1 setting of 1100, a PMT3 setting of 900, and color compensation (PMT1, PMT3) of 15 percent.
Liquid in Situ Cell Preparation and Hybridization Protocol
1. Cells were fixed in solution F, then resuspended in 2x SSC.
2. The cells were spun out of solution and resuspended in an assay solution (consisting of the hybridization cocktail HC alone or in combination with a compound or compounds being tested as an enhancer.)
3. After 30 min. at 42° C., the cells were washed in wash solution #1 preheated to 42° C. by centrifuging them out of the assay solution.
4. Cells were next washed in wash solution #2 preheated to 42° C.
5. Cells were resuspended in a 1X PBS solution containing 0.002% trypan blue as a counterstain.
6. Cells were run on a flow cytometer and a "Count vs. LFL1" histogram was generated. ("Count" refers to cell count.) This histogram was used as the basis for determining the mean LFL1.
The effect on probe signal intensity of adding, in addition to DMSO, additional compounds to the assay solution was determined in an in situ liquid hybridization assay. The data was analyzed by flow cytometry.
The Liquid In Situ Cell Preparation and Hybridization Protocol was followed. The cells used were Hela cells. The probes used were a 28S RNA probe (SEQ ID NO: 1) and an NR probe.
The 28S RNA probe (SEQ ID NO: 1) is a target-specific probe specific for ribosomal RNA fluorescence obtained with it represents the sum of fluorescence from target-bound probe, non-specifically bound probe and autofluorescence from cellular molecules. The NR probe (SEQ ID NO: 2) is specific for a plant nucleic acid sequence and, in the current Example, the fluorescence obtained with it represent the sum of fluorescence from non-specifically bound probe and autofluorescence.
In this experiment, the hybridization cocktail consisted of nine volumes of HC-DMSO plus one volume of additional compound. In the control sample, one volume of water replaced the one volume of additional compound. As a result, in all samples, the concentration of DMSO was 9 percent (v/v).
The ratio, 28S/NR, is the ratio of the mean LFL1 observed with the 28S RNA probe (SEQ ID NO: 1) to the mean LFL1 observed with the NR probe (SEQ ID NO: 2). The results in the "28S RNA probe" and "NR probe" columns give the mean LFL1 observed with the 28S RNA and NR probes, respectively (SEQ ID NO: 1 and SEQ ID NO: 2, respectively).

[2] = test system: Human female white blood cells (karyotype XX); test: Signal enhancers in the mounting solution after in situ hybridization (Example 6), HXR probes, fluorescent microscope; type: cell-based; conditions: one volume compound plus 9 volumes mounting solution; rhodamine HXR probes; water control = 1
Experimental: After the in situ hybridization step, the cells were washed and then modified mounting solution was added and cells were observed under the microscope for fluorescence signal. Modified mounting solution was 9 volumes of mounting solution and one volume of additional compound, which was the compound being tested for its ability to be a signal enhancer. Mounting solution consisted of 0.1% 1,4 diphenylamine (antifade) in 50% glycerol (v/v), and nuclear stain Hoechst (#33258; 1 ug/ml).
Human female white blood cells (karyotype XX) were hybridized at 85° C. for 15 minutes with female chromosome HXR probes labelled with a rhodamine fluor. Cells were washed with wash buffers #1 and #2, and then suspended in a modified mounting solution. The additional compound in the modified mounting solution was varied; as a control, water was used as the additional compound. The signal intensity was observed under the fluorescent microscope.

[3] = test system: Human female white blood cells (karyotype XX); test: as above; type: cell-based; conditions: not further described

Row | Structure (SMILES) | Fluorescent Signal intensity (Scale of 1 to 4) (Hepg2 cells) | Fluorescent Signal intensity (Scale of 1 to 4) [1] | Fluorescent Signal intensity (Scale of 1 to 4) (Amniotic cells) | Cells giving hybridization signal (Hepg 2 cells; DMSO included in in situ assay solution, cells not specified (opening statement of Example 2)) | Optimal DMSO concentration for signal brightness (Hela cells; DMSO alone, nine percent) | Fluorescent signal (Scale of 1 to 4) (Hepg 2 cells; 10% (v/v) additional compound with 9% DMSO, slide rating x 0.5, water control = 2, average of four experiments) | 28S RNA Probe, mean LFL1 (Hela cells; 10% additional compound with 9% DMSO, FITC 28S RNA probe, water control 6.070, average of four experiments) | NR Probe, mean LFL1 (Hela cells; 10% additional compound with 9% DMSO, FITC NR probe (non-specific binding and autofluorescence), water control 0.137) | Ratio 28S RNA/NR (ratio of mean LFL1) (Hela cells; 10% additional compound with 9% DMSO, water control 44) | Signal Intensity Scale of 1 to 4 [2] | Effect on signal in an earlier experiment [3]
1 | C[S+](C)[O-] [DMSO, dimethyl sulfoxide] | 4 | 4 | 4 | over 95% | at or close to the optimal DMSO concentration for signal brightness | – | – | – | – | – | –
2 | CCCCCCCCCCCCO [dodecyl alcohol] | – | – | – | – | – | 2 | 4.804 | 0.142 | 34 | 4 | decrease in signal
